Measured values published in the supplement of paper PMC12592484.

Tests used:
Experiment in all cases: drug sensitivity score (DSS2, normalised partial AUC of dose-response, 72 h CellTiter-Glo viability) (DSS (dimensionless)); higher = more sensitive (stronger growth inhibition / cytotoxicity); extreme values may be limits of the assay
[1] = test system: PF179T
How it was run: (§1)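 Viability of low-passage primary prostate cancer-associated fibroblasts, PF179T, WPMY-1, LNCaP and 22Rv1 cells was read by CellTiter-Glo 2.0 luminescence 72 h after seeding onto compounds pre-dispensed in 384-well plates at five doses over a 10,000-fold range. Readings were scaled between vehicle and positive-control wells. Sensitivity is reported as a drug sensitivity score from BREEZE, namely a partial area under the fitted logistic curve divided by the log of its upper asymptote, where higher means more sensitive.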

[2] = test system: CAF#5 (primary prostate cancer-associated fibroblasts of myCAF-like type)
How it was run: as §1

[3] = test system: 22Rv1
How it was run: as §1

[4] = test system: CAF#2 (primary prostate cancer-associated fibroblasts of iCAF-like type)
How it was run: as §1

[5] = test system: CAF#3 (primary prostate cancer-associated fibroblasts of myCAF-like type)
How it was run: as §1

[6] = test system: CAF#7 (primary prostate cancer-associated fibroblasts of myCAF-like type)
How it was run: as §1

[7] = test system: CAF#1 (primary prostate cancer-associated fibroblasts of myCAF-like type)
How it was run: as §1

[8] = test system: CAF#6 (primary prostate cancer-associated fibroblasts of iCAF-like type)
How it was run: as §1

[9] = test system: CAF#4 (primary prostate cancer-associated fibroblasts of iCAF-like type)
How it was run: as §1

[10] = test system: WPMY-1
How it was run: as §1

[11] = test system: LNCAP
How it was run: as §1

| Compound | drug sensitivity score [1] | drug sensitivity score [2] | drug sensitivity score [3] | drug sensitivity score [4] | drug sensitivity score [5] | drug sensitivity score [6] | drug sensitivity score [7] | drug sensitivity score [8] | drug sensitivity score [9] | drug sensitivity score [10] | drug sensitivity score [11] |
| --- | --- | --- | --- | --- | --- | --- | --- | --- | --- | --- | --- |
| CC(C)NC[C@@H](C(=O)N1CCN(c2ncnc3c2[C@H](C)C[C@H]3O)CC1)c1ccc(Cl)cc1 [Ipatasertib] (tested concentration range 1-10000 nM) | 0 | 1.1 | 5.7 | 1.2 | 1.8 | 0 | 0.6 | 1.7 | 0.1 | 2 | 22.6 |
| C[C@H]1Oc2cc(cnc2N)-c2c(nn(C)c2C#N)CN(C)C(=O)c2ccc(F)cc21 [Lorlatinib] (tested concentration range 0.1-1000 nM) | 0 | 3.3 | 0.3 | 2.2 | 0 | 2.9 | 1.9 | 1.4 | 2.5 | 0.4 | 0 |
| Cn1cc(C[C@@H](N)C(=O)O)c2ccccc21 [Indoximod] (tested concentration range 0.5-5000 nM) | 0 | 0.6 | 0 | 0 | 0 | 0 | 0 | 0 | 0 | 0 | 0 |
| N#CC1(c2ccc(NC(=O)c3cccnc3NCc3ccncc3)cc2)CCCC1 [Apatinib] (tested concentration range 1-10000 nM) | 0 | 0 | 0 | 0 | 1.8 | 2.2 | 0 | 2.6 | 0 | 0 | 5.8 |
| CN(C)Cc1c(C(=O)NCCOc2ccc(C(=O)NO)cc2)oc2ccccc12 [Abexinostat] (tested concentration range 1-10000 nM) | 10.6 | 9.3 | 19.8 | 12.2 | 8.9 | 9 | 10 | 9.9 | 6.9 | 21.6 | 19.5 |
| CC1(COc2ccc3c(c2)ncn3-c2ccc3cccc(N4CCC(N)CC4)c3n2)COC1 [Crenolanib] (tested concentration range 1-10000 nM) | 4.7 | 9.3 | 4.9 | 7.3 | 7.5 | 3.5 | 8.9 | 7 | 3.2 | 7.2 | 4.4 |
| Cn1cnc2c(F)c(Nc3ccc(Br)cc3Cl)c(C(=O)NOCCO)cc21 [Selumetinib] (tested concentration range 1-10000 nM) | 2.5 | 1.6 | 14.4 | 4.5 | 0 | 2.6 | 1.2 | 1.1 | 2.5 | 4.3 | 0 |
| Cn1cc(-c2ccc(F)c(C(F)(F)F)c2)nc1C1CCN(c2ncnc3[nH]ncc23)CC1 (tested concentration range 1-10000 nM) | 0 | 1.5 | 2.3 | 1 | 0 | 0.4 | 1.3 | 0.5 | 1.4 | 0 | 7.1 |
| CCNC(=O)C[C@@H]1N=C(c2ccc(Cl)cc2)c2cc(OC)ccc2-n2c(C)nnc21 [Molibresib] (tested concentration range 1-10000 nM) | 2.9 | 2.9 | 8.9 | 5.1 | 6.6 | 2.7 | 4.6 | 2.9 | 3.8 | 6.5 | 12.3 |
| NS(=O)(=O)NCCNc1nonc1/C(=N/O)Nc1ccc(F)c(Br)c1 [Epacadostat] (tested concentration range 1-10000 nM) | 0.5 | 0.9 | 0 | 1.1 | 0 | 1.1 | 0 | 0 | 2 | 0.2 | 0 |
| O=C1CCC(N2C(=O)c3ccccc3C2=O)C(=O)N1 (stereo unspecified) [Thalidomide] (tested concentration range 1-10000 nM) | 0 | 0 | 0 | 0 | 0 | 0 | 0 | 0 | 0 | 0 | 0 |
| C[C@H]1C[C@@H]2[C@H]([C@@H](O)C[C@@]3(C)[C@H]2CC[C@]3(O)C(=O)CO)[C@@]2(C)C=CC(=O)C=C12 [Methylprednisolone] (tested concentration range 1-10000 nM) | 0 | 0 | 0 | 0 | 1.9 | 1.2 | 0 | 0 | 0 | 0 | 0 |
| CNC(=O)c1ccccc1Nc1cc(Nc2ccc(N3CCOCC3)cc2OC)ncc1C(F)(F)F [VS-4718] (tested concentration range 1-10000 nM) | 7.5 | 13.1 | 7.9 | 11.9 | 8.1 | 12.4 | 12.9 | 8.9 | 7.3 | 6.8 | 4.5 |
| N#CC[C@H](C1CCCC1)n1cc(-c2ncnc3[nH]ccc23)cn1 [Ruxolitinib] (tested concentration range 1-10000 nM) | 0 | 1.3 | 0 | 0.8 | 0 | 0 | 0 | 0 | 0 | 0.6 | 1.5 |
| CNC(=O)c1ccc(N2C(=S)N(c3ccc(C#N)c(C(F)(F)F)c3)C(=O)C2(C)C)cc1F [Enzalutamide] (tested concentration range 1-10000 nM) | 0.4 | 2.8 | 0 | 2.3 | 0 | 0 | 3.9 | 0.5 | 2.2 | 0 | 2.6 |
| Cc1[nH]nc(C(F)(F)F)c1Cc1sc2c(c1C(=O)N1C[C@](C)(O)CO1)c(=O)n(C)c(=O)n2C(C)C [AZD3965] (tested concentration range 0.1-1000 nM) | 0 | 0 | 0 | 0.1 | 0 | 0 | 0.1 | 0 | 0 | 0 | 10.5 |
| CCNC(=O)CCC/C=C\C[C@@H]1[C@@H](/C=C/[C@@H](O)CCc2ccccc2)[C@H](O)C[C@@H]1O [Bimatoprost] (tested concentration range 0.6-5500 nM) | 0 | 0 | 0 | 0 | 0.1 | 0 | 0 | 0 | 0 | 0 | 0 |
| Nc1nc(NC2CC2)cc(-c2cccc(Cl)c2Cl)n1 [TH588] (tested concentration range 2.5-25000 nM) | 2.8 | 1.7 | 4.2 | 2.7 | 3 | 0.5 | 2 | 1.9 | 2.7 | 7.9 | 6.5 |
| O=C(Nc1nc2cccc(-c3ccc(CN4CCS(=O)(=O)CC4)cc3)n2n1)C1CC1 [Filgotinib] (tested concentration range 1-10000 nM) | 0.9 | 1.9 | 2.5 | 2.3 | 1.7 | 0.6 | 2.1 | 0.1 | 0 | 2.1 | 3.8 |
| CCCOc1ccn2c(C(C)=O)cc(-c3ccccc3S(C)(=O)=O)c2c1 [GSK2801] (tested concentration range 1-10000 nM) | 0 | 0.4 | 0 | 0 | 0 | 0 | 0 | 0 | 0 | 0 | 1.2 |
| COc1cccc2c1c(O)c(C(=O)N(C)c1ccc(C(F)(F)F)cc1)c(=O)n2C [Tasquinimod] (tested concentration range 1-10000 nM) | 0.4 | 3.4 | 0 | 3.5 | 0 | 5.8 | 0.3 | 4.4 | 0 | 0 | 0 |
| CCCCc1nc2cc(/C=C/C(=O)NO)ccc2n1CCN(CC)CC [Pracinostat] (tested concentration range 1-10000 nM) | 9.9 | 10.3 | 20 | 13.7 | 9 | 8.4 | 10.7 | 9.2 | 10.6 | 20 | 20.3 |
| COc1ccc(Cn2ccc3ccc(C(=O)NO)cc32)cc1 (tested concentration range 1-10000 nM) | 4.8 | 1.4 | 2.8 | 3.1 | 2.9 | 4 | 2.8 | 4.1 | 1.4 | 2.8 | 5.5 |
| Cc1cnc(Nc2ccc(OCCN3CCCC3)cc2)nc1Nc1cccc(S(=O)(=O)NC(C)(C)C)c1 [Fedratinib] (tested concentration range 1-10000 nM) | 7.7 | 5.2 | 9.5 | 5 | 9.7 | 9.6 | 3.9 | 8 | 4.6 | 7.2 | 8 |
| Cc1cn(-c2cc(NC(=O)c3ccc(C)c(Nc4nccc(-c5cccnc5)n4)c3)cc(C(F)(F)F)c2)cn1 [Nilotinib] (tested concentration range 1-10000 nM) | 0 | 0.2 | 2.1 | 0.8 | 0 | 0 | 0.8 | 0 | 1.7 | 0 | 5.3 |
| O=C1Cc2cc(C(=O)NC3C[C@H]4CC[C@@H](C3)N4S(=O)(=O)CC3CCN(CCCC(F)(F)F)CC3)c(Cl)cc2N1 (stereo partly specified) (tested concentration range 1-10000 nM) | 0.5 | 0 | 0 | 0 | 0 | 0 | 0 | 0 | 0 | 0 | 0 |
